From patent US20130109854A1, “Novel Methods for Preparation of (+)-1-ethyl-4-[2-(4-morpholinyl)ethyl)-3,3-diphenyl-2-pyrrolidinone and Salts Thereof” (priority 2011, published 2013)

Columns and labels:
[1] = Stimulating ventilation or reversing respiratory depression (respiratory stimulant activity); format: in vivo; conditions: compared with racemic doxapram
[2] = Acute side effects in animals; format: in vivo; conditions: compared with racemic doxapram or a salt thereof
[3] = cited from earlier work

SMILES	activity in stimulating ventilation or reversing respiratory depression (desired beneficial pharmacological activity of racemic doxapram) [1]	adverse side effects compared to administration of racemic doxapram [2]	tidal volume and respiratory rate ([3]; administered intravenously)	effect on stimulating respiration (breathing) ([3]; animals, Ward & Franko, 1962)
CCN1CC(CCN2CCOCC2)C(c2ccccc2)(c2ccccc2)C1=O (single isomer, unassigned; (-)) [(−)-doxapram]	essentially devoid of activity	–	–	–
CCN1C[C@H](CCN2CCOCC2)C(c2ccccc2)(c2ccccc2)C1=O [(+)-doxapram, (+)-4-(2-(1-ethyl-5-oxo-4,4-diphenylpyrrolidin-3-yl)ethyl)morpholine]	most or all the desired beneficial pharmacological activity associated with the racemic doxapram	significantly reduced adverse side effects	–	–
CCN1CC(CCN2CCOCC2)C(c2ccccc2)(c2ccccc2)C1=O (racemic) [doxapram]	–	–	increase	strong, dose-dependent effect
